Data: publication PMC10743086, “Immunofluorescence-Based Assay for High-Throughput Analysis of Multidrug Resistance Markers in Non-Small Cell Lung Carcinoma Patient-Derived Cells” (Diagnostics, 2023)

How the values were obtained:
Type in all cases: cell-based, human
[1] = test system: ABCC1 expression in cancer cells (CK8/18+); experiment: Immunofluorescence assay of ABCC1 expression in patient-derived NSCLC cultures; conditions: 7 days
Protocol: (§1) Tissue samples were collected during surgery, and the NSCLC diagnosis, histological grade, stage, necrosis, and lymph node invasion status were determined by histopathological analysis. […] The surgical specimens were placed in a sterile tube containing antibiotic-antimycotic solution (Sigma-Aldrich Chemie GmbH, Taufkirchen, Germany) and immediately transported to the research laboratory for further processing.
(§2) Upon arrival, the tissue was manually chopped with a surgical blade in a Petri dish under sterile conditions. The samples were cut into 3–5 mm pieces and further dissociated using the Tumor Dissociation Kit (Miltenyi Biotec, Bergisch Gladbach, Germany). The Tumor Dissociation Kit was used to dissociate the cells from the tumor tissue according to the manufacturer’s instructions. The samples were incubated in a 37 °C orbital shaker (KS 4000 ic control, IKA, Königswinter, Germany) at 300 rpm for 90 min. After incubation, the dissociated tissue was placed in DMEM/Ham’s F12 (1:3 ratio) growth medium supplemented with 5% fetal bovine serum (Corning, NY, USA), antibiotic-antimycotic solution, 4 µg/mL hydrocortisone (Sigma-Aldrich Chemie GmbH, Taufkirchen, Germany), 1 µg/mL insulin (Sigma-Aldrich Chemie GmbH, Taufkirchen, Germany), 10 ng/mL epidermal growth factor (BioLegend, San Diego, CA, USA), and 24 µg/mL adenine (Sigma-Aldrich Chemie GmbH, Taufkirchen, Germany). The DMEM and Ham’s F12 growth media were purchased from Sigma-Aldrich Chemie GmbH (Taufkirchen, Germany).
(§3) The dissociated tissue was cultured in T-25 cell culture flasks until cell attachment was observed before the medium was replaced. If no cell attachment was achieved within 7 days, the sample was discarded. Successful patient-derived cultures were maintained at 37 °C in a humidified atmosphere with 5% CO2 and grown to confluence before undergoing further experiments. […] Partial trypsinization was performed by detaching the fibroblast-like cells with 1 mL of 0.05% trypsin for 1 min at 37 °C, followed by 2 min at room temperature (RT).
(§4) Vinorelbine and pemetrexed were purchased from Selleckchem (Houston, TX, USA). Carboplatin, cisplatin, docetaxel, etoposide, gemcitabine, gefitinib, and paclitaxel were purchased from Sigma-Aldrich Chemie GmbH (Taufkirchen, Germany). The cisplatin, carboplatin, and gemcitabine were dissolved in sterile water, while the etoposide, docetaxel, vinorelbine, paclitaxel, gefitinib, and pemetrexed were dissolved in DMSO and stored at −20 °C. Before treatment, all the stock solutions were freshly diluted in sterile water.
(§5) The primary cells were seeded in black, clear bottom 384-well cell culture microplates (Thermo Fisher Scientific, Waltham, MA, USA) in 50 µL of cell growth medium at a density of 1000 cells per well. The compounds were administered 72 h after seeding. The treatment lasted 7 days.
(§6) The immunofluorescence assay for the quantification of MDR markers was optimized to distinguish cancer cells from stromal cells using a cytokeratin 8/18 (CK8/18) antibody cocktail. The cells were fixed with 4% paraformaldehyde for 20 min at RT and washed three times with PBS using the Wellwash Versa microplate washer (Thermo Fisher Scientific, Waltham, MA, USA). The cells were then blocked with 2% bovine serum albumin (BSA) in PBS for 1 h at RT. […] Co-immunostaining with antibodies against MDR markers was performed to detect the presence of ABCB1, ABCC1, and ABCG2 in both the cancer and stromal cells. […] The secondary antibodies were incubated with the cells at RT for 2 h in the dark. […] Finally, the cells were washed three times with PBS and stored at 4 °C in the dark before imaging.

[2] = test system: Cancer cells (CK8/18+) of patient-derived NSCLC cultures; experiment: Cytotoxicity in patient-derived NSCLC cultures, cancer cells; conditions: Homo sapiens, 168 h, 7 days treatment
Protocol: as §1, §2, §3, §4, §5, §6

MRC-5 cells = experiment: Cytotoxicity by immunofluorescence cell scoring (cell counts), normal fibroblasts; conditions: Homo sapiens, MRC5, 24 h, 24 h treatment
Protocol: as §4
(§7) The compounds were administered 48 h after seeding. The treatment lasted 24 h.
as §6
(§8) The fluorescently labeled cells were imaged using the ImageXpress Pico Automated Cell Imaging System (Molecular Devices, San Jose, CA, USA) with a 4x objective after determining the appropriate exposure time for each illumination filter. Analysis of the obtained images was performed using CellReporterXpress software v. 2.8.2.669 (Molecular Devices). The cytotoxicity of the compounds was determined using the Cell Scoring Analysis Protocol. […] Expression of MDR markers was determined using the Multi-Wavelength Cell Scoring Analysis Protocol.

NCI-H460/R cells = experiment: Cytotoxicity by immunofluorescence cell scoring (cell counts), multidrug-resistant NSCLC cell line; conditions: Homo sapiens, 24 h treatment
Source text: Human non-small cell lung carcinoma cells (NCI-H460) were purchased from the American Type Culture Collection (Rockville, MD, USA), and normal embryonic lung fibroblasts (MRC-5) were purchased from the European Collection of Authenticated Cell Cultures (Salisbury, UK). Multidrug-resistant NCI-H460/R cells overexpressing ABCB1 were selected from the NCI-H460 cells after selective pressure with doxorubicin [21]. All the cell lines were maintained in MEM medium (Sigma-Aldrich Chemie GmbH, Taufkirchen, Germany) supplemented with 10% FBS, 2 mM L-glutamine, and antibiotic-antimycotic solution. All the cell lines were maintained at 37 °C in a humidified atmosphere with 5% CO2.
as §4, §7, §6, §8

[3] = test system: ABCB1 expression in cancer cells (CK8/18+); experiment: Immunofluorescence assay of ABCB1 expression in patient-derived NSCLC cultures; conditions: 7 days
Protocol: as §1, §2, §3, §4, §5, §6

NCI-H460 cells = experiment: Cytotoxicity by immunofluorescence cell scoring (cell counts), NSCLC cell line; conditions: Homo sapiens, NCI-H460, 24 h, 24 h treatment
Protocol: as §4, §7, §6, §8

[4] = test system: ABCB1 expression in MRC-5 cells; experiment: Immunofluorescence assay of MDR marker ABCB1 expression; conditions: five concentrations, 24 h
Protocol: as §4, §7, §6, §8

[5] = test system: Non-cancer cells (CK8/18-) of patient-derived NSCLC cultures; experiment: Cytotoxicity in patient-derived NSCLC cultures, non-cancer cells; conditions: Homo sapiens, 168 h, 7 days treatment
Protocol: as §1, §2, §3, §4, §5, §6

[6] = culture TR58, cancer cells (CK8/18+)
[7] = culture TR64, cancer cells (CK8/18+)
[8] = culture TR65, cancer cells (CK8/18+)
[9] = culture TR84, cancer cells (CK8/18+)
[10] = culture TR87, cancer cells (CK8/18+)
[11] = MRC-5 (co-culture with NCI-H460)
[12] = MRC-5 (co-culture with NCI-H460/R)
[13] = NCI-H460/R (co-culture with MRC-5)
[14] = NCI-H460 (co-culture with MRC-5)
[15] = culture TR58, non-cancer cells (CK8/18-)
[16] = culture TR64, non-cancer cells (CK8/18-)
[17] = culture TR65, non-cancer cells (CK8/18-)
[18] = culture TR84, non-cancer cells (CK8/18-)
[19] = culture TR87, non-cancer cells (CK8/18-)

Q: With `COc1cc([C@@H]2c3cc4c(cc3[C@@H](O[C@@H]3O[C@@H]5CO[C@@H](C)O[C@H]5[C@H](O)[C@H]3O)[C@H]3COC(=O)[C@H]23)OCO4)cc(OC)c1O` [Etoposide, etoposide] as the molecule, how does the ABCC1 expression [1, 6] read?
A: The ABCC1 expression was “no change”.

Q: And the ABCC1 expression [1, 7]?
A: Its ABCC1 expression is “increase (An increase in ABCB1, ABCC1, or ABCG2 expression of at least 20% at a minimum of one concentration is shown in the table.)”.

Q: And the ABCC1 expression [1, 8]?
A: Its ABCC1 expression is “increase (An increase in ABCB1, ABCC1, or ABCG2 expression of at least 20% at a minimum of one concentration is shown in the table.)”.

Q: What about the ABCC1 expression [1, 9] of the same molecule?
A: The ABCC1 expression was “increase (An increase in ABCB1, ABCC1, or ABCG2 expression of at least 20% at a minimum of one concentration is shown in the table.)”.

Q: What about the ABCC1 expression [1, 10] of the same molecule?
A: The ABCC1 expression was “increase (An increase in ABCB1, ABCC1, or ABCG2 expression of at least 20% at a minimum of one concentration is shown in the table.)”.

Q: What about the IC50 [2, 6] of the same molecule?
A: Its IC50 is 7.13 µM.

Q: And the IC50 [2, 7]?
A: Its IC50 is 11.9 µM.

Q: What about the IC50 [2, 8] of the same molecule?
A: The IC50 was 25.4 µM.

Q: What about the IC50 [2, 9] of the same molecule?
A: The IC50 was 2.98 µM.

Q: And the IC50 [2, 10]?
A: Its IC50 is 13 µM.

Q: And the IC50 (MRC-5 cells; [11])?
A: Its IC50 is > 30 µM.

Q: What about the IC50 (MRC-5 cells; [12]) of the same molecule?
A: Its IC50 is > 30 µM.

Q: And the IC50 (MRC-5 cells; MRC-5 monoculture)?
A: Its IC50 is > 30 µM.

Q: What about the IC50 (NCI-H460/R cells; [13]) of the same molecule?
A: The IC50 was 7.5 µM.

Q: And the IC50 (NCI-H460/R cells; NCI-H460/R monoculture)?
A: Its IC50 is 7.92 µM.

Q: What about the ABCB1 Expression [3, 6] of the same molecule?
A: Its ABCB1 Expression is “no change”.

Q: What about the ABCB1 Expression [3, 7] of the same molecule?
A: Its ABCB1 Expression is “increase (An increase in ABCB1, ABCC1, or ABCG2 expression of at least 20% at a minimum of one concentration is shown in the table.)”.

Q: What about the ABCB1 Expression [3, 8] of the same molecule?
A: The ABCB1 Expression was “increase (An increase in ABCB1, ABCC1, or ABCG2 expression of at least 20% at a minimum of one concentration is shown in the table.)”.

Q: And the ABCB1 Expression [3, 9]?
A: Its ABCB1 Expression is “increase (An increase in ABCB1, ABCC1, or ABCG2 expression of at least 20% at a minimum of one concentration is shown in the table.)”.

Q: And the ABCB1 Expression [3, 10]?
A: The ABCB1 Expression was “increase (An increase in ABCB1, ABCC1, or ABCG2 expression of at least 20% at a minimum of one concentration is shown in the table.)”.

Q: And the IC50 (NCI-H460 cells; [14])?
A: The IC50 was 6.07 µM.

Q: And the IC50 (NCI-H460 cells; NCI-H460 monoculture)?
A: The IC50 was 4.81 µM.

Q: What about the “ABCB1 Expression” value [4, 11] of the same molecule?
A: Its value is “no change”.

Q: What about the “ABCB1 Expression” value [4, 12] of the same molecule?
A: Its value is “no change”.

Q: And the “ABCB1 Expression” value ([4]; MRC-5 monoculture)?
A: Its value is “no change”.

Q: What about the IC50 [5, 15] of the same molecule?
A: The IC50 was 6.49 µM.

Q: And the IC50 [5, 16]?
A: Its IC50 is 18.1 µM.

Q: What about the IC50 [5, 17] of the same molecule?
A: The IC50 was 2.08 µM.

Q: And the IC50 [5, 18]?
A: Its IC50 is 1.01 µM.

Q: What about the IC50 [5, 19] of the same molecule?
A: Its IC50 is 10.2 µM.

Q: What does the source list for `Nc1ccn([C@@H]2O[C@H](CO)[C@@H](O)C2(F)F)c(=O)n1` [Gemcitabine, gemcitabine]?
A: ABCC1 expression [1, 6]: no change; ABCC1 expression [1, 7]: increase (An increase in ABCB1, ABCC1, or ABCG2 expression of at least 20% at a minimum of one concentration is shown in the table.); ABCC1 expression [1, 8]: increase (An increase in ABCB1, ABCC1, or ABCG2 expression of at least 20% at a minimum of one concentration is shown in the table.); ABCC1 expression [1, 9]: increase (An increase in ABCB1, ABCC1, or ABCG2 expression of at least 20% at a minimum of one concentration is shown in the table.); ABCC1 expression [1, 10]: increase (An increase in ABCB1, ABCC1, or ABCG2 expression of at least 20% at a minimum of one concentration is shown in the table.); IC50 [2, 6]: 2.55 µM; IC50 [2, 7]: 4.92 µM; IC50 [2, 8]: 4.91 µM; IC50 [2, 9]: 2.68 µM; IC50 [2, 10]: 3.41 µM; IC50 (MRC-5 cells; [11]): > 100 µM; IC50 (MRC-5 cells; [12]): > 100 µM; IC50 (MRC-5 cells; MRC-5 monoculture): > 100 µM; IC50 (NCI-H460/R cells; [13]): 29.4 µM; IC50 (NCI-H460/R cells; NCI-H460/R monoculture): 33.6 µM; ABCB1 Expression [3, 6]: no change; ABCB1 Expression [3, 7]: increase (An increase in ABCB1, ABCC1, or ABCG2 expression of at least 20% at a minimum of one concentration is shown in the table.); ABCB1 Expression [3, 8]: increase (An increase in ABCB1, ABCC1, or ABCG2 expression of at least 20% at a minimum of one concentration is shown in the table.); ABCB1 Expression [3, 9]: increase (An increase in ABCB1, ABCC1, or ABCG2 expression of at least 20% at a minimum of one concentration is shown in the table.); ABCB1 Expression [3, 10]: increase (An increase in ABCB1, ABCC1, or ABCG2 expression of at least 20% at a minimum of one concentration is shown in the table.); IC50 (NCI-H460 cells; [14]): 34.6 µM; IC50 (NCI-H460 cells; NCI-H460 monoculture): 41.6 µM; ABCB1 Expression [4, 11]: no change; ABCB1 Expression [4, 12]: no change; ABCB1 Expression ([4]; MRC-5 monoculture): no change; IC50 [5, 15]: 3.07 µM; IC50 [5, 16]: 7.06 µM; IC50 [5, 17]: 0.351 µM; IC50 [5, 18]: 0.491 µM; IC50 [5, 19]: 1.13 µM
